Structures can show the parent of a compound that is named as a salt.

The test system of experiment [1] is ESX. How it is done:
(§1)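 60-agent targeted drug screens (Drug Screen V3 on epithelioid sarcoma cultures PCB490-3/4/5, PCB495, EPS cell lines ESX, VA-ES-BJ, FU-EPS-1 and SkMc myoblasts; PPTI screen v2.1 on human UPS PCB197 and canine UPS S1-12). 384-well plates, 72 h, CellTiter-Glo viability; IC50 by Hill curve fit. 10000 nM = no IC50 achieved (top reported value).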

For experiment [2], the system named is FU-EPS-1. How it is done:
as §1

Experiment [3] relates to PCB-490-3 (human epithelioid sarcoma primary culture). As for the experimental part: as §1
For experiment [4], the system named is PCB-490-4 (human epithelioid sarcoma primary culture). How it is done: as §1
Experiment [5] deals with PCB-490-5 (human epithelioid sarcoma primary culture). How it is done:
as §1

For experiment [6], the system named is PCB-495 (human epithelioid sarcoma primary culture). How it is done: as §1
Experiment [7] deals with SkMc. How it is done: as §1
Experiment [8] has as its system VA-ES-BJ. How it is done:
as §1

With `CN(C(=O)c1ccc(F)cc1C(F)(F)F)C1CCN(c2nnc(-c3ccnn3C)c3ccccc23)CC1`, the IC50 cell viability in experiment [1], in experiment [2], in experiment [3], in experiment [4], in experiment [5] and in experiment [6] was greater than 10 µM each time. For the same molecule, the IC50 cell viability in experiment [7] and in experiment [8] was greater than 10 µM in each case.
Regarding `CCOC(=O)CCNc1cc(N2CCc3ccccc3CC2)nc(-c2ccccn2)n1` [GSK-J4 HCl], the IC50 cell viability in experiment [1] was 1.58 µM; in experiment [2] it was greater than 10 µM; in experiment [3], greater than 10 µM; in experiment [4] it was greater than 10 µM; in experiment [5] it was greater than 10 µM; in experiment [6], greater than 10 µM. Moreover, the IC50 cell viability in experiment [7] was greater than 10 µM; in experiment [8], 4.72 µM.
Consider `CC(C)(C)Cn1c(N)nc2ccc(-c3[nH]c(C(C)(C)C)nc3-c3ccc(F)cc3)nc21`, for which the IC50 cell viability is 5.07 µM in experiment [1]; greater than 10 µM in experiment [2]; greater than 10 µM in experiment [3]; greater than 10 µM in experiment [4]; greater than 10 µM in experiment [5]; greater than 10 µM in experiment [6]. The IC50 cell viability in experiment [7] and in experiment [8] was greater than 10 µM throughout.
With `Nc1nc(Nc2ccc(S(N)(=O)=O)cc2)nn1C(=S)Nc1c(F)cccc1F` [Cdk1/2 inhibitor III], the IC50 cell viability in experiment [1] is 0.2 µM; in experiment [2], greater than 10 µM; in experiment [3], 1.41 µM; in experiment [4], 1.02 µM; in experiment [5], 1.1 µM; in experiment [6], 0.42 µM. Also, the IC50 cell viability in experiment [7] is 0.29 µM; in experiment [8], 0.13 µM.
Turning to `C=CCn1c(=O)c2cnc(Nc3ccc(N4CCN(C)CC4)cc3)nc2n1-c1cccc(C(C)(C)O)n1` [MK-1775], the IC50 cell viability is 0.17 µM in experiment [1]; 1.01 µM in experiment [2]; greater than 10 µM in experiment [3]; greater than 10 µM in experiment [4]; greater than 10 µM in experiment [5]; greater than 10 µM in experiment [6]. For the same molecule, the IC50 cell viability in experiment [7] turned out to be 0.16 µM; in experiment [8] it was 0.3 µM.
`CO[C@H]1C[C@@H]2CC[C@@H](C)[C@@](O)(O2)C(=O)C(=O)N2CCCC[C@H]2C(=O)O[C@H]([C@H](C)C[C@@H]2CC[C@@H](O)[C@H](OC)C2)CC(=O)[C@H](C)/C=C(\C)[C@@H](O)[C@@H](OC)C(=O)[C@H](C)C[C@H](C)/C=C/C=C/C=C/1C` [Sirolimus]: the IC50 cell viability in experiment [1], in experiment [2], in experiment [3], in experiment [4], in experiment [5] and in experiment [6] was greater than 10 µM throughout. Also, the figures for the IC50 cell viability in experiment [7] and in experiment [8] were 0.29 µM and greater than 10 µM, respectively.
In the case of `CN(C)C(=N)NC(=N)N` [Metformin HCL], the IC50 cell viability in experiment [1], in experiment [2], in experiment [3], in experiment [4], in experiment [5] and in experiment [6] was greater than 10 µM each time. The IC50 cell viability in experiment [7] and in experiment [8] was greater than 10 µM throughout.
As for `CC(C)n1c(/C=C/C(O)CC(O)CC(=O)O)c(-c2ccc(F)cc2)c2ccccc21` (stereo not given) [Fluvastatin], the IC50 cell viability stood at 2.5 µM in experiment [1]; 1.48 µM in experiment [2]; 1.32 µM in experiment [3]; 4.28 µM in experiment [4]; 1.32 µM in experiment [5]; 0.08 µM in experiment [6]. Besides, the IC50 cell viability was found to be 8.73 µM in experiment [7] and 0.1 µM in experiment [8].
For `COc1cccc(OCCCN)c1-c1cc(Nc2cnc(C#N)cn2)n[nH]1`, the IC50 cell viability in experiment [1] is 0.23 µM; in experiment [2], greater than 10 µM; in experiment [3] it was greater than 10 µM; in experiment [4], greater than 10 µM; in experiment [5] it was greater than 10 µM; in experiment [6] it was 3.17 µM. Besides, the IC50 cell viability in experiment [7] was found to be 1.29 µM; in experiment [8] it was 0.69 µM.
For the molecule `COc1ccc(C[C@@H](C)[C@@H](C)Cc2ccc(OC)c(OC)c2)cc1OC` [EM1421], the IC50 cell viability in experiment [1], in experiment [2], in experiment [3], in experiment [4], in experiment [5] and in experiment [6] was greater than 10 µM throughout. Moreover, the IC50 cell viability in experiment [7] and in experiment [8] was greater than 10 µM in each case.
